Consider five sequences from PMC11813147, “Bioactivity assessment of peptides derived from salted jellyfish (Rhopilema hispidum) byproducts” (PLOS ONE, 2025).

Assay [1] in a line: DPPH radical scavenging assay. Format: biochemical. The settings on record: supplement tables; for DPPH, mean±SD: n = 3. The essentials:
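Sample mixed with 0.1 mM DPPH in 70% ethanol and kept 30 min in the dark at room temperature; absorbance read at 517 nm. Scavenging % taken from absorbance relative to a reagent-only control; Trolox standard curve gives TEAC as mM TE/mg protein.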

The nature of assay [2]: Ferric reducing antioxidant power (FRAP) assay. In kind it is biochemical. The method, boiled down: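 Sample mixed with FRAP reagent (300 mM acetate buffer pH 3.6, 10 mM TPTZ in 40 mM HCl, 20 mM FeCl3; 10:1:1) and kept 15 min in the dark; absorbance at 593 nm. Values from an FeSO4 standard curve, as mM FeSO4 equivalent per mg protein.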
Assay [3] relates to angiotensin I-converting enzyme (ACE). The experiment in a line: ACE inhibitory activity assay (fluorometric ACE activity assay kit). In kind it is biochemical. Particulars: peptide sample 1 mg/mL; for ACE inhibitory activity, mean±SD: 37 °C, fluorescence ex 320/em 405 nm, n = 3.
In the next assay the test system is RAW 264.7. The experiment in a line: Anti-inflammation assay: released NO in LPS-stimulated RAW 264.7 (Griess). The settings on record: then 1 µg/mL LPS 24 h; for Released NO: peptide 10 µg/mL 1 h; for Released NO, mean±SD: peptide 10 µg/mL pre-treatment 1 h, Griess reagent, n = 3. In kind it is cell-based, Murine. The method, boiled down: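 RAW 264.7 cells pre-treated 1 h with peptide samples at 10 µg/mL, then stimulated with 1 µg/mL LPS for 24 h. NO released into conditioned medium quantified by Griess reagent against an NO calibration curve; unstimulated cells served as negative control.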

[4] abbreviates: 10 µL sample + 190 µL FRAP solution, 15 min dark, 593 nm, FeSO4 standard curve, mean ± SD, n = 3, SD.

As for “PFTMYFLL [P14, synthesized peptide identified from jellyfish fraction PUR20C]”, in assay [1], the “DPPH, mean±SD” value was 6.29±0.53^D TE/mg protein. The DPPH in assay [1] (replicate 1) is listed as 6.29 TE/mg protein; in assay [1] (replicate 2) it was 5.76 TE/mg protein; in assay [1] (replicate 3), 6.82 TE/mg protein. Further, the FRAP in assay [2] (setting [4]) is 9.24±1.05 mM FeSO4/mg protein; in assay [2] (supplement tables, replicate 1), 10.36 mM FeSO4/mg protein; in assay [2] (supplement tables, replicate 2), 9.10 mM FeSO4/mg protein; in assay [2] (supplement tables, replicate 3), 8.26 mM FeSO4/mg protein. The “ACE inhibitory activity, mean±SD” value in assay [3] is listed as 81.87±0.33^B %. Also, the ACE inhibitory activity amounted to 81.67% in assay [3] (replicate 1), 81.67% in assay [3] (replicate 2) and 82.25% in assay [3] (replicate 3). The “Released NO” value is listed as 32.06 µM in the assay with RAW 264.7 (replicate 1), 31.03 µM in the assay on RAW 264.7 (replicate 2) and 34.48 µM in the assay on RAW 264.7 (replicate 3). Also, the “Released NO, mean±SD” value in the assay with RAW 264.7 is 32.52±1.76^F µM.

Consider “PMETDDQPNN [P17, synthesized peptide identified from jellyfish fraction PUR20C]”, for which, in assay [1], the “DPPH, mean±SD” value is recorded as 5.23±0.53^D TE/mg protein. Besides, the figures for the DPPH in assay [1] (replicate 1), in assay [1] (replicate 2) and in assay [1] (replicate 3) were 4.70 TE/mg protein, 5.23 TE/mg protein and 5.76 TE/mg protein, respectively. Besides, the FRAP in assay [2] (setting [4]) is 6.50±1.59^G mM FeSO4/mg protein; in assay [2] (supplement tables, replicate 1), 7.63 mM FeSO4/mg protein; in assay [2] (supplement tables, replicate 2), 7.21 mM FeSO4/mg protein; in assay [2] (supplement tables, replicate 3), 4.68 mM FeSO4/mg protein. Moreover, the “ACE inhibitory activity, mean±SD” value in assay [3] is recorded as 12.40±2.23^H %. Moreover, the ACE inhibitory activity in assay [3] (replicate 1) was 9.82%; in assay [3] (replicate 2), 13.54%; in assay [3] (replicate 3), 13.83%. Moreover, the “Released NO” value in the assay on RAW 264.7 (replicate 1) is 34.48 µM; in the assay with RAW 264.7 (replicate 2), 34.82 µM; in the assay with RAW 264.7 (replicate 3), 34.82 µM. Moreover, the “Released NO, mean±SD” value with RAW 264.7 is given as 34.71 µM.

Regarding “RARVVPMY [P6, synthesized peptide identified from jellyfish fraction PUR20C]”, the “DPPH, mean±SD” value in assay [1] came to 3.28 TE/mg protein. The DPPH in assay [1] (replicate 1) is on record as 3.11 TE/mg protein; in assay [1] (replicate 2) it was 2.84 TE/mg protein; in assay [1] (replicate 3), 3.90 TE/mg protein. Besides, the FRAP in assay [2] (setting [4]) is recorded as 10.78±0.63^D mM FeSO4/mg protein; in assay [2] (supplement tables, replicate 1) it was 10.15 mM FeSO4/mg protein; in assay [2] (supplement tables, replicate 2), 11.42 mM FeSO4/mg protein; in assay [2] (supplement tables, replicate 3), 10.78 mM FeSO4/mg protein. The “ACE inhibitory activity, mean±SD” value in assay [3] is on record as 33.68±0.59^E %. The ACE inhibitory activity was 33.87% in assay [3] (replicate 1), 33.01% in assay [3] (replicate 2) and 34.16% in assay [3] (replicate 3). Besides, the “Released NO” value with RAW 264.7 (replicate 1) was 34.82 µM; with RAW 264.7 (replicate 2) it was 35.51 µM; with RAW 264.7 (replicate 3), 39.65 µM. The “Released NO, mean±SD” value with RAW 264.7 came out at 36.66 ± 2.61 µM.

For “RPLAKIIP [P8, synthesized peptide identified from jellyfish fraction PUR20C]”, the “DPPH, mean±SD” value in assay [1] is given as 2.22 TE/mg protein. Further, the DPPH in assay [1] (replicate 1) was 1.78 TE/mg protein; in assay [1] (replicate 2) it was 1.78 TE/mg protein; in assay [1] (replicate 3), 3.11 TE/mg protein. Also, the FRAP in assay [2] (setting [4]) was 9.31 mM FeSO4/mg protein; in assay [2] (supplement tables, replicate 1), 9.31 mM FeSO4/mg protein; in assay [2] (supplement tables, replicate 2) it was 9.52 mM FeSO4/mg protein; in assay [2] (supplement tables, replicate 3) it was 9.10 mM FeSO4/mg protein. Besides, in assay [3], the “ACE inhibitory activity, mean±SD” value is 29.96±3.35^F %. Also, the ACE inhibitory activity in assay [3] (replicate 1) is reported as 32.44%; in assay [3] (replicate 2), 26.14%; in assay [3] (replicate 3) it was 31.29%. Besides, the “Released NO” value with RAW 264.7 (replicate 1) came out at 37.58 µM; in the assay with RAW 264.7 (replicate 2), 37.93 µM; in the assay with RAW 264.7 (replicate 3), 34.82 µM. The “Released NO, mean±SD” value with RAW 264.7 is 36.78 µM.

With “TDSPAPSETTD [P2, synthesized peptide identified from jellyfish fraction PUR20C]”, the “DPPH, mean±SD” value in assay [1] turned out to be 2.84 TE/mg protein. Moreover, the figures for the DPPH in assay [1] (replicate 1), in assay [1] (replicate 2) and in assay [1] (replicate 3) were 2.31 TE/mg protein, 3.11 TE/mg protein and 3.11 TE/mg protein, respectively. Also, the FRAP turned out to be 7.63 mM FeSO4/mg protein in assay [2] (setting [4]); 7.21 mM FeSO4/mg protein in assay [2] (supplement tables, replicate 1); 7.63 mM FeSO4/mg protein in assay [2] (supplement tables, replicate 2); 8.05 mM FeSO4/mg protein in assay [2] (supplement tables, replicate 3). Moreover, the “ACE inhibitory activity, mean±SD” value in assay [3] is listed as 0.85±0.33^K %. The ACE inhibitory activity in assay [3] (replicate 1) is reported as 0.66%; in assay [3] (replicate 2), 1.24%; in assay [3] (replicate 3) it was 0.66%. Also, the “Released NO” value with RAW 264.7 (replicate 1) is 38.27 µM; in the assay on RAW 264.7 (replicate 2), 37.24 µM; with RAW 264.7 (replicate 3), 37.58 µM. Besides, in the assay with RAW 264.7, the “Released NO, mean±SD” value was determined as 37.70 µM.
